Data on eight compounds can be found in patent US11267861B2, “Peptide-oligourea foldamer compounds and methods of their use” (UREKA SARL, priority 2016, dated 2022).

The structures appear in SMILES notation. In brackets after ≈: the same amount, converted by molar mass. Numbered stars: 1 amine (or outer) side, 2 acyl side, 3 side chain; on linkers, the order of the positions; unused ones are H or OH. Bridge positions count the residues as written; N and C are the ends. Square brackets hold non-standard residues; d marks the D form. Peptide text beside a SMILES is read from it. I, II: the chains in the order shown. X4 = NCCCC[C@@H](CNC(=O)[*:1])N[*:2]; Nle = CCCC[C@H](N)C(=O)O

A short description of data set [1]: Solubility of glucagon analogs (UV absorbance).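 On all read-outs here: peptide stock at 3 mg/ml in 0.01 M HCl, absorbance at 280 nm read before neutralization and again on the diluted supernatant after centrifugation.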 The conditions noted are these: for solubility: 0.01M HCl solution adjusted to pH 7 with Na2HPO4, pH 7, pH adjusted to 7 with Na2HPO4, incubated overnight at 4° C.; for ratio (solubility relative to reference compound 16): relative to compound 16. Format: physicochemical.
Procedure: A solution of 3 mg/ml of glucagon (or analog) was prepared in a 0.01M HCl solution. Then 0.1 ml of the stock solution was diluted to 1 ml with HCl (0.01M) and the UV absorbance measured (to 280 nm) with nanodrop UV spectrometer. The pH of the remaining stock solution was adjusted to 7 using Na2HPO4, and the solution was incubated overnight at 4° C. The solution was then centrifuged three times (5 minutes, 4000 rotations per minute), 0.1 ml of the supernatant was removed and diluted to 1 ml with HCl solution (0.01M).
The final UV absorbance was measured.
Another data set concerns the target T1, human glucagon receptor (Homo sapiens, UniProt P47871).
T1 construct: expressed in transfected cells; host or cells: CHO cells
Briefly: Glucagon functional assay: agonist activity by cAMP production (HTRF) in transfected CHO cells. Format: cell-based. The note with it: for EC50: cAMP production, transfected CHO cells, 10 minutes at 37° C. Here is the method: Functional Assay to Examine Bioactivity of Glucagon Receptor Agonists. Evaluation of the agonist activity of compounds at the human glucagon receptor expressed in transfected CHO cells was examined by measuring their effects on cAMP production using the HTRF detection method. […] For stimulated control measurement, separate assay wells contain 100 nM glucagon were utilized.
Following incubation, the cells were lysed and the fluorescence acceptor (D2-labeled cAMP) and fluorescence donor (anti-cAMP antibody labeled with europium cryptate) were added. […] The results are expressed as a percent of the control response to 100 nM glucagon. The standard reference agonist is glucagon, which was tested in each experiment at several concentrations to generate a concentration-response curve from which its EC50 value was calculated.
HTRF (Homogeneous Time-Resolved Fluorescence) principle. The HTRF technology is based on time resolved fluorescence energy transfer (TR-FRET), which occurs between long-lived fluorophore Europium or Terbium Cryptates, and EuK or Tb respectively, as a donor and the allophycocyanin XL665, d2 or Red as acceptor. Many compounds and proteins present in biological fluids or serum are naturally fluorescent, and the use of conventional, prompt fluorescence leads to serious limitations in assay sensitivity. The use of long-lived fluorophore combined with time-resolved detection (a delay between excitation and emission detection) minimizes prompt fluorescence interference.
A general note: Cyclic AMP is a second messenger, typically raised through Gs and lowered through Gi signalling.

T1 sequence (P47871 26-477): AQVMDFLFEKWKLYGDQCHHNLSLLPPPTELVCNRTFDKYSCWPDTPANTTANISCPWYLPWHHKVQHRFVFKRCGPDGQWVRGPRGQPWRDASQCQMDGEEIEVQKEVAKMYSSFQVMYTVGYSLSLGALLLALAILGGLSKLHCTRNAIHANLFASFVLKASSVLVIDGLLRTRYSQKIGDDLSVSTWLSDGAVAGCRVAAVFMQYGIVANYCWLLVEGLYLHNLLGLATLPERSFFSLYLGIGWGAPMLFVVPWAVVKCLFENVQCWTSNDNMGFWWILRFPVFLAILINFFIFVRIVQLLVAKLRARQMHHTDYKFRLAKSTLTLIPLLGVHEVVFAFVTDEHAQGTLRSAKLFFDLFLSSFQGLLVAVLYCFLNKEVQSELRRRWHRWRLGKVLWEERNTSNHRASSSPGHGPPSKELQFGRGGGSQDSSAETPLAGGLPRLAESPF

In the case of `CCCC[C@H](NC(=O)[C@H](CC(C)C)NC(=O)[C@H](Cc1c[nH]c2ccccc12)NC(=O)[C@H](CCC(N)=O)NC(=O)[C@@H](NC(=O)NC[C@H](Cc1ccccc1)NC(=O)[C@H](CC(=O)O)NC(=O)[C@H](CCC(N)=O)NC(=O)[C@H](C)NC(=O)[C@H](CCCNC(=N)N)NC(=O)[C@H](CCCNC(=N)N)NC(=O)[C@H](CO)NC(=O)[C@H](CC(=O)O)NC(=O)[C@H](CC(C)C)NC(=O)[C@H](Cc1ccc(O)cc1)NC(=O)[C@H](CCCCN)NC(=O)[C@H](CO)NC(=O)[C@H](Cc1ccc(O)cc1)NC(=O)[C@H](CC(=O)O)NC(=O)[C@H](CO)NC(=O)[C@@H](NC(=O)[C@H](Cc1ccccc1)NC(=O)[C@@H](NC(=O)CNC(=O)[C@H](CCC(N)=O)NC(=O)[C@H](CO)NC(=O)[C@@H](N)Cc1c[nH]cn1)[C@@H](C)O)[C@@H](C)O)C(C)C)C(=O)N[C@@H](CC(N)=O)C(=O)N[C@H](C(=O)O)[C@@H](C)O` [Compound 62], in data set [1], the solubility (commonly the dissolved amount per volume that the medium holds) was 680 µg/mL (≈ 195 µM) and the “ratio (solubility relative to reference compound 16)” value is listed as 2.7. Besides, the EC50 (as a rule, the concentration that produces a half-maximal response) on human glucagon receptor is 53 nM.
For the compound `CCCC[C@H](NC(=O)[C@H](CC(C)C)NC(=O)[C@H](Cc1c[nH]c2ccccc12)NC(=O)[C@H](CCC(N)=O)NC(=O)[C@@H](NC(=O)[C@H](Cc1ccccc1)NC(=O)[C@H](CC(=O)O)NC(=O)[C@H](CCC(N)=O)NC(=O)[C@H](C)NC(=O)[C@H](CCCNC(=N)N)NC(=O)[C@H](CCCNC(=N)N)NC(=O)[C@H](CO)NC(=O)[C@H](CC(=O)O)NC(=O)[C@H](CC(C)C)NC(=O)[C@H](Cc1ccc(O)cc1)NC(=O)NC[C@H](CCCCN)NC(=O)[C@H](CO)NC(=O)[C@H](Cc1ccc(O)cc1)NC(=O)[C@H](CC(=O)O)NC(=O)[C@H](CO)NC(=O)[C@@H](NC(=O)[C@H](Cc1ccccc1)NC(=O)[C@@H](NC(=O)CNC(=O)[C@H](CCC(N)=O)NC(=O)[C@H](CO)NC(=O)[C@@H](N)Cc1c[nH]cn1)[C@@H](C)O)[C@@H](C)O)C(C)C)C(=O)N[C@@H](CC(N)=O)C(=O)N[C@H](C(=O)O)[C@@H](C)O` [Compound 59] (I: YLDSRRAQDFVQWL[Nle]NT-OH / II: H-HSQGTFTSDYS; linker I:N-II:C via X4; C-terminus assumed), in data set [1], the solubility is 720 µg/mL (≈ 206 µM) and the “ratio (solubility relative to reference compound 16)” value amounted to 2.9. Besides, it took 32 nM to reach a half-maximal effect on human glucagon receptor (EC50).
On the same counts, the results for `CCCC[C@H](NC(=O)[C@H](CC(C)C)NC(=O)[C@H](Cc1c[nH]c2ccccc12)NC(=O)[C@H](CCC(N)=O)NC(=O)[C@@H](NC(=O)[C@H](Cc1ccccc1)NC(=O)[C@H](CC(=O)O)NC(=O)[C@H](CCC(N)=O)NC(=O)[C@H](C)NC(=O)[C@H](CCCNC(=N)N)NC(=O)[C@H](CCCNC(=N)N)NC(=O)NC[C@H](C)NC(=O)[C@H](CC(=O)O)NC(=O)[C@H](CC(C)C)NC(=O)[C@H](Cc1ccc(O)cc1)NC(=O)[C@H](CCCCN)NC(=O)[C@H](CO)NC(=O)[C@H](Cc1ccc(O)cc1)NC(=O)[C@H](CC(=O)O)NC(=O)[C@H](CO)NC(=O)[C@@H](NC(=O)[C@H](Cc1ccccc1)NC(=O)[C@@H](NC(=O)CNC(=O)[C@H](CCC(N)=O)NC(=O)[C@H](CO)NC(=O)[C@@H](N)Cc1c[nH]cn1)[C@@H](C)O)[C@@H](C)O)C(C)C)C(=O)N[C@@H](CC(N)=O)C(=O)N[C@H](C(=O)O)[C@@H](C)O` [Compound 52] are 490 µg/mL (≈ 141 µM), 1.9 and 34 nM.
On the same counts, the results for `CCCC[C@H](NC(=O)[C@H](CC(C)C)NC(=O)NC[C@H](Cc1c[nH]c2ccccc12)NC(=O)[C@H](CCC(N)=O)NC(=O)[C@@H](NC(=O)[C@H](Cc1ccccc1)NC(=O)[C@H](CC(=O)O)NC(=O)[C@H](CCC(N)=O)NC(=O)[C@H](C)NC(=O)[C@H](CCCNC(=N)N)NC(=O)[C@H](CCCNC(=N)N)NC(=O)[C@H](CO)NC(=O)[C@H](CC(=O)O)NC(=O)[C@H](CC(C)C)NC(=O)[C@H](Cc1ccc(O)cc1)NC(=O)[C@H](CCCCN)NC(=O)[C@H](CO)NC(=O)[C@H](Cc1ccc(O)cc1)NC(=O)[C@H](CC(=O)O)NC(=O)[C@H](CO)NC(=O)[C@@H](NC(=O)[C@H](Cc1ccccc1)NC(=O)[C@@H](NC(=O)CNC(=O)[C@H](CCC(N)=O)NC(=O)[C@H](CO)NC(=O)[C@@H](N)Cc1c[nH]cn1)[C@@H](C)O)[C@@H](C)O)C(C)C)C(=O)N[C@@H](CC(N)=O)C(=O)N[C@H](C(=O)O)[C@@H](C)O` [Compound 65] are 850 µg/mL (≈ 243 µM), 3.4 and 1.5 nM.
For `CCCC[C@H](NC(=O)[C@H](CC(C)C)NC(=O)NC[C@H](C)NC(=O)[C@H](CCC(N)=O)NC(=O)[C@@H](NC(=O)[C@H](Cc1ccccc1)NC(=O)[C@H](CC(=O)O)NC(=O)[C@H](CCC(N)=O)NC(=O)[C@H](C)NC(=O)[C@H](CCCNC(=N)N)NC(=O)[C@H](CCCNC(=N)N)NC(=O)[C@H](CO)NC(=O)[C@H](CC(=O)O)NC(=O)[C@H](CC(C)C)NC(=O)[C@H](Cc1ccc(O)cc1)NC(=O)[C@H](CCCCN)NC(=O)[C@H](CO)NC(=O)[C@H](Cc1ccc(O)cc1)NC(=O)[C@H](CC(=O)O)NC(=O)[C@H](CO)NC(=O)[C@@H](NC(=O)[C@H](Cc1ccccc1)NC(=O)[C@@H](NC(=O)CNC(=O)[C@H](CCC(N)=O)NC(=O)[C@H](CO)NC(=O)[C@@H](N)Cc1c[nH]cn1)[C@@H](C)O)[C@@H](C)O)C(C)C)C(=O)N[C@@H](CC(N)=O)C(=O)N[C@H](C(=O)O)[C@@H](C)O` [Compound 57], in data set [1], the solubility stood at 970 µg/mL (≈ 287 µM) and the “ratio (solubility relative to reference compound 16)” value is on record as 3.9. Further, the concentration giving a half-maximal response (EC50) at human glucagon receptor amounted to 22 nM.
In the case of `CC(C)C[C@H](NC(=O)[C@H](Cc1ccc(O)cc1)NC(=O)[C@H](CCCCN)NC(=O)[C@H](CO)NC(=O)[C@H](Cc1ccc(O)cc1)NC(=O)[C@H](CC(=O)O)NC(=O)[C@H](CO)NC(=O)[C@@H](NC(=O)[C@H](Cc1ccccc1)NC(=O)[C@@H](NC(=O)CNC(=O)[C@H](CCC(N)=O)NC(=O)[C@H](CO)NC(=O)[C@@H](N)Cc1c[nH]cn1)[C@@H](C)O)[C@@H](C)O)C(=O)N[C@@H](CC(=O)O)C(=O)N[C@@H](CO)C(=O)N[C@@H](CCCNC(=N)N)C(=O)N[C@@H](CCCNC(=N)N)C(=O)N[C@@H](C)C(=O)N[C@@H](CCC(N)=O)C(=O)N[C@@H](CC(=O)O)C(=O)N[C@@H](Cc1ccccc1)C(=O)N[C@H](C(=O)N[C@@H](CCC(N)=O)C(=O)N[C@@H](Cc1c[nH]c2ccccc12)C(=O)N[C@@H](CC(C)C)C(=O)N[C@@H](C)CNC(=O)N[C@@H](CC(N)=O)C(=O)N[C@H](C(=O)O)[C@@H](C)O)C(C)C` [Compound 34], in data set [1], the solubility was 860 µg/mL (≈ 249 µM) and the “ratio (solubility relative to reference compound 16)” value was determined as 3.4. This compound also gave a half-maximal effective concentration (EC50) at human glucagon receptor of 2.5 nM.
As for `CCCC[C@H](NC(=O)[C@H](CC(C)C)NC(=O)[C@H](Cc1c[nH]c2ccccc12)NC(=O)[C@H](CCC(N)=O)NC(=O)[C@@H](NC(=O)[C@H](Cc1ccccc1)NC(=O)[C@H](CC(=O)O)NC(=O)[C@H](CCC(N)=O)NC(=O)[C@H](C)NC(=O)[C@H](CCCNC(=N)N)NC(=O)[C@H](CCCNC(=N)N)NC(=O)[C@H](CO)NC(=O)[C@H](CC(=O)O)NC(=O)[C@H](CC(C)C)NC(=O)[C@H](Cc1ccc(O)cc1)NC(=O)[C@H](CCCCN)NC(=O)[C@H](CO)NC(=O)[C@H](Cc1ccc(O)cc1)NC(=O)[C@H](CC(=O)O)NC(=O)[C@H](CO)NC(=O)[C@@H](NC(=O)[C@H](Cc1ccccc1)NC(=O)[C@@H](NC(=O)CNC(=O)[C@H](CCC(N)=O)NC(=O)[C@H](CO)NC(=O)[C@@H](N)Cc1c[nH]cn1)[C@@H](C)O)[C@@H](C)O)C(C)C)C(=O)N[C@@H](C)CNC(=O)N[C@H](C(=O)O)[C@@H](C)O` [Compound 35], a half-maximal response on human glucagon receptor (EC50) required 0.44 nM.
As for `CCCC[C@H](NC(=O)[C@H](CC(C)C)NC(=O)[C@H](Cc1c[nH]c2ccccc12)NC(=O)[C@H](CCC(N)=O)NC(=O)[C@@H](NC(=O)[C@H](Cc1ccccc1)NC(=O)[C@H](CC(=O)O)NC(=O)[C@H](CCC(N)=O)NC(=O)[C@H](C)NC(=O)[C@H](CCCNC(=N)N)NC(=O)[C@H](CCCNC(=N)N)NC(=O)[C@H](CO)NC(=O)[C@H](CC(=O)O)NC(=O)[C@H](CC(C)C)NC(=O)[C@H](Cc1ccc(O)cc1)NC(=O)[C@H](CCCCN)NC(=O)[C@H](CO)NC(=O)[C@H](Cc1ccc(O)cc1)NC(=O)[C@H](CC(=O)O)NC(=O)[C@H](CO)NC(=O)[C@@H](NC(=O)[C@H](Cc1ccccc1)NC(=O)[C@@H](NC(=O)CNC(=O)[C@H](CCC(N)=O)NC(=O)[C@H](CO)NC(=O)[C@@H](N)Cc1c[nH]cn1)[C@@H](C)O)[C@@H](C)O)C(C)C)C(=O)N[C@@H](CC(N)=O)C(=O)N[C@@H](C)CNC(N)=O` [Compound 36], the “% bioactivity of reference, GCG-R” value on human glucagon receptor (Reference Compound 16) stood at 246%. On human glucagon receptor, this compound gave an EC50 of 0.026 nM.
